Experimental data taken from the supplement of paper PMC11451515.

System: P12-Ichikawa
Assay: cell viability relative to DMSO control; higher = less cytotoxic
Conditions: 48 h
In short: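 NOMO1 or SEM cells were plated at 500 cells/well and P12-Ichikawa cells at 1000 cells/well in 1536-well plates (5 μl), after each leukemia line had been adapted for at least four passages in each medium. Pin dosing delivered library compounds in DMSO at 11 threefold concentrations, 47 μM to 0.79 nM. CellTiter-Glo One luminescence was read after 48 h at 37°C. Viability is reported as a per-plate percentage of DMSO wells, with cell-free wells as background.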

[1] = HPLM + 10% dialyzed FBS, 0.000781 µM
[2] = HPLM + 10% dialyzed FBS, 0.00234 µM
[3] = HPLM + 10% dialyzed FBS, 0.00702 µM
[4] = HPLM + 10% dialyzed FBS, 0.0211 µM
[5] = HPLM + 10% dialyzed FBS, 0.0632 µM
[6] = HPLM + 10% dialyzed FBS, 0.19 µM
[7] = HPLM + 10% dialyzed FBS, 0.569 µM
[8] = HPLM + 10% dialyzed FBS, 1.71 µM
[9] = HPLM + 10% dialyzed FBS, 5.12 µM
[10] = HPLM + 10% dialyzed FBS, 15.4 µM
[11] = HPLM + 10% dialyzed FBS, 46.1 µM
[12] = RPMI 5 mM glucose + 10% FBS, 0.000781 µM
[13] = RPMI 5 mM glucose + 10% FBS, 0.00234 µM
[14] = RPMI 5 mM glucose + 10% FBS, 0.00702 µM
[15] = RPMI 5 mM glucose + 10% FBS, 0.0211 µM
[16] = RPMI 5 mM glucose + 10% FBS, 0.0632 µM
[17] = RPMI 5 mM glucose + 10% FBS, 0.19 µM
[18] = RPMI 5 mM glucose + 10% FBS, 0.569 µM
[19] = RPMI 5 mM glucose + 10% FBS, 1.71 µM
[20] = RPMI 5 mM glucose + 10% FBS, 5.12 µM
[21] = RPMI 5 mM glucose + 10% FBS, 15.4 µM
[22] = RPMI 5 mM glucose + 10% FBS, 46.1 µM
[23] = RPMI 5 mM glucose + 10% dialyzed FBS, 0.000781 µM
[24] = RPMI 5 mM glucose + 10% dialyzed FBS, 0.00234 µM
[25] = RPMI 5 mM glucose + 10% dialyzed FBS, 0.00702 µM
[26] = RPMI 5 mM glucose + 10% dialyzed FBS, 0.0211 µM
[27] = RPMI 5 mM glucose + 10% dialyzed FBS, 0.0632 µM
[28] = RPMI 5 mM glucose + 10% dialyzed FBS, 0.19 µM
[29] = RPMI 5 mM glucose + 10% dialyzed FBS, 0.569 µM
[30] = RPMI 5 mM glucose + 10% dialyzed FBS, 1.71 µM
[31] = RPMI 5 mM glucose + 10% dialyzed FBS, 5.12 µM
[32] = RPMI 5 mM glucose + 10% dialyzed FBS, 15.4 µM
[33] = RPMI 5 mM glucose + 10% dialyzed FBS, 46.1 µM

Row | SMILES | cell viability [1] [%] | cell viability [2] [%] | cell viability [3] [%] | cell viability [4] [%] | cell viability [5] [%] | cell viability [6] [%] | cell viability [7] [%] | cell viability [8] [%] | cell viability [9] [%] | cell viability [10] [%] | cell viability [11] [%] | cell viability [12] [%] | cell viability [13] [%] | cell viability [14] [%] | cell viability [15] [%] | cell viability [16] [%] | cell viability [17] [%] | cell viability [18] [%] | cell viability [19] [%] | cell viability [20] [%] | cell viability [21] [%] | cell viability [22] [%] | cell viability [23] [%] | cell viability [24] [%] | cell viability [25] [%] | cell viability [26] [%] | cell viability [27] [%] | cell viability [28] [%] | cell viability [29] [%] | cell viability [30] [%] | cell viability [31] [%] | cell viability [32] [%] | cell viability [33] [%]
1 | CC1(C)Cc2c(sc(NC(=S)NC(=O)c3ccccc3)c2C(=O)O)CO1 | 99.1 | 109 | 107 | 110 | 109 | 115 | 118 | 114 | 101 | 99.2 | 101 | 103 | 110 | 110 | 116 | 119 | 118 | 121 | 112 | 110 | 108 | 106 | 103 | 112 | 108 | 110 | 115 | 109 | 126 | 122 | 114 | 105 | 106
2 | C[C@@H](NCc1cc2ccccc2[nH]1)c1cccc2ccccc12 | 88.5 | 88.8 | 93.4 | 93 | 86.8 | 97 | 95.5 | 97.7 | 90 | 93.4 | 90.2 | 89.1 | 90.2 | 87.5 | 95.9 | 92.9 | 91.3 | 94.8 | 88 | 89.8 | 88.8 | 92.2 | 84.1 | 86.6 | 83.2 | 91.4 | 77.3 | 84.7 | 85.5 | 92.6 | 88.5 | 90.7 | 89.5
3 | C=C[C@H]1CN2CCC1C[C@@H]2[C@@H](O)c1ccnc2ccccc12 (some centres not stated) | 101 | 99.5 | 95.9 | 99.6 | 100 | 92.4 | 87.7 | 93.6 | 85.8 | 90.7 | 78.2 | 93.8 | 93.4 | 99.5 | 94.7 | 103 | 90.9 | 86.4 | 92.3 | 90.8 | 83.3 | 67.8 | 101 | 89.4 | 91.7 | 96.6 | 97.2 | 92.6 | 96.5 | 81.7 | 84.5 | 81.8 | 67.9
4 | CN1/C=C(\N=C(NC2=CC=C(C=C2)C(=O)N3CCOCC3)/C1=O)/C4=C(C)C(=CC=C4)NC(=O)C5=CC=C(C=C5)C(C)(C)C | 107 | 108 | 108 | 101 | 104 | 103 | 106 | 98.1 | 98.3 | 88.6 | 89.5 | 102 | 95.4 | 107 | 91.2 | 106 | 110 | 97.9 | 100 | 98.5 | 95.4 | 94.4 | 106 | 111 | 103 | 101 | 108 | 106 | 105 | 106 | 107 | 93.7 | 85.7
